Measurements: patent publication US20190388513A1, “OIL BASED FORMULATIONS FOR SUBLINGUAL AND BUCCAL DELIVERY” (BIOLINGUS IP LLC, priority 2017, published 2019)
Blank lines part the entries; values can stand above or below the compound they belong to.

Columns and labels:
[1] = Sublingual resveratrol: plasma resveratrol levels (Cmax, AUC) in rats, LC-MS/MS (Example 7); format: in vivo; conditions: sublingual 10 mg in oil formulation (CSSR6d) versus oral 10 mg in sugar syrup, SD rats, up to 24 hours
Experimental: Resveratrol was suspended in 50% sugar solution and the mixture spun until homogenous for oral ingestion. Two groups of each three SD rats were treated. The treatment groups were administered as follows: 1) sublingual resveratrol in oil formulation (Group 1: SL-resveratrol 10 mg in oil formulation); 2) oral administered resveratrol in sugar syrup (Group 2: OP resveratrol 10 mg in sugar syrup). Nine blood sampling time points up to 24 hours post dosing per anima […]. Plasma samples bio analysis was performed with LC-MS/MS method.

diabetic mice [2] = assay: Sublingual insulin aspart study: blood glucose in diabetic mice (Example 1); format: in vivo, mice (strain C57/BL6); conditions: sublingual 100 U/kg insulin aspart in TPMCEu oil, without exenatide, versus SC insulin aspart 1 IU/kg
Experimental: For the experiments described below, mice of approximately 60 g were used. 5 μL of the resulting oil mixture comprising Insulin Aspart was placed underneath the tongue of anesthetised diabetic mice. […] Five groups of five mice were treated. […] These were compared to 4) 1 IU/kg subcutaneously administered insulin aspart (SC-Insulin aspart) and 5) sublingual oil placebo ([…]).

diabetic mice [3] = assay: Sublingual insulin glargine study, solid dosage formulation: blood glucose in diabetic mice (Example 2); format: in vivo, mice (strain C57/BL6); conditions: sublingual insulin glargine 10 or 50 IU/kg absorbed on solid dosage formulation, versus SC insulin glargine 1 IU/kg
Experimental: One solid dosage formulation was placed underneath the tongue of anesthetised diabetic mice. Blood glucose was measured at 0 h, 1 h, 2 h, 4 h, 8 h, 20 h and 24 h.
Four groups of five mice were treated. The treatment groups were administered as follows: 1) sublingual solid dosage formulation placebo (Group 1: SL-CSSR 4; wherein “CSSR-4” means a solid formulation containing vitamin E, PEG 200 and flavouring oils). 2) 1 IU/kg subcutaneously administered insulin glargine (Group 2: SC-Insulin glargine 1 IU/kg); 3) 10 IU/kg sublingually administered insulin glargine (Group 3: SL-Insulin glargine 10 IU/kg); and 4) 50 IU/kg sublingually administered insulin glargine (Group 4: SL-Insulin glargine 50 IU/kg). For animal studies using solid formulations, tablets were dissolved in water to form a gel. The gel was then placed under the tongue of the mice instead of the tablet.

Absorbability relative to orally administered resveratrol (Cmax and AUC of blood resveratrol levels) [1]: 20 to 40 times
Compound: Oc1ccc(C=Cc2cc(O)cc(O)c2)cc1 [resveratrol]

Compound: insulin aspart
Blood glucose levels / AUC0-240min, compared with subcutaneous delivery (diabetic mice [2]): comparable to subcutaneous delivery of insulin aspart

Compound: insulin glargine
Blood glucose levels 0-24 h, compared with subcutaneous delivery (diabetic mice [3]): comparable to subcutaneous delivery of insulin glargine
